From patent US20260042731A1, “(2,4-DICHLOROPHENOXY)ACETIC ACID ANALOGS” (CORTEVA AGRISCIENCE LLC, priority 2022, published 2026)
Like-named read-outs stand apart in the source and are kept apart here.

Columns and labels:
[1] = system: Abutilon theophrasti (ABUTH), velvetleaf; assay: Postemergence herbicide evaluation, growth of Abutilon theophrasti (ABUTH); format: in vivo; conditions: Abutilon theophrasti, post-emergence, percent reduction in plant size vs untreated control, read-out: AVE. ABUTH; for pest or weed control at 280 g/ha: 280 g ae/ha; for pest or weed control at 560 g/ha: 560 g ae/ha
[2] = Volatility of compounds measured by thermogravimetric analysis (TGA); format: physicochemical
[3] = system: Ambrosia artemisiifolia (AMBEL), common ragweed; assay: Postemergence herbicide evaluation, growth of Ambrosia artemisiifolia (AMBEL); format: in vivo; conditions: Ambrosia artemisiifolia, post-emergence, percent reduction in plant size vs untreated control, read-out: AVE. AMBEL; for pest or weed control at 280 g/ha: 280 g ae/ha; for pest or weed control at 560 g/ha: 560 g ae/ha
[4] = system: Amaranthus rudis (AMATA), tall water hemp; assay: Postemergence herbicide evaluation, growth of Amaranthus rudis (AMATA); format: in vivo; conditions: Amaranthus tuberculatus, post-emergence, percent reduction in plant size vs untreated control, read-out: Ave. AMATA; for pest or weed control at 280 g/ha: 280 g ae/ha; for pest or weed control at 560 g/ha: 560 g ae/ha
[5] = system: Chenopodium album (CHEAL), common lambsquarters; assay: Postemergence herbicide evaluation, growth of Chenopodium album (CHEAL); format: in vivo; conditions: Chenopodium album, post-emergence, percent reduction in plant size vs untreated control, read-out: Ave. CHEAL; for pest or weed control at 280 g/ha: 280 g ae/ha; for pest or weed control at 560 g/ha: 560 g ae/ha
[6] = system: weeds ABUTH, AMATA, AMBEL, CHEAL, ERICA; assay: Postemergence herbicide evaluation, overall average % weed control across ABUTH, AMATA, AMBEL, CHEAL and ERICA; format: in vivo; conditions: post-emergence, average over five weeds, read-out: Overall Ave % Weed Control; for pest or weed control at 280 g/ha: 280 g ae/ha; for pest or weed control at 560 g/ha: 560 g ae/ha
[7] = system: glyphosate resistant Conyza canadensis (L.) (ERICA), horseweed; assay: Postemergence herbicide evaluation, growth of Conyza canadensis (ERICA); format: in vivo; conditions: Erigeron canadensis, post-emergence, percent reduction in plant size vs untreated control, read-out: Ave. ERICA; for pest or weed control at 280 g/ha: 280 g ae/ha; for pest or weed control at 560 g/ha: 560 g ae/ha

Compound | pest or weed control at 280 g/ha ([1]; 168 h, 7 DAA) [%] | pest or weed control at 560 g/ha ([1]; 168 h, 7 DAA) [%] | pest or weed control at 280 g/ha ([1]; 336 h, 14 DAA) [%] | pest or weed control at 560 g/ha ([1]; 336 h, 14 DAA) [%] | pest or weed control at 560 g/ha ([1]; 504 h, 21 DAA) [%] | pest or weed control at 280 g/ha ([3]; 168 h, 7 DAA) [%] | pest or weed control at 560 g/ha ([3]; 168 h, 7 DAA) [%] | pest or weed control at 280 g/ha ([3]; 336 h, 14 DAA) [%] | pest or weed control at 560 g/ha ([3]; 336 h, 14 DAA) [%] | pest or weed control at 560 g/ha ([3]; 504 h, 21 DAA) [%] | pest or weed control at 280 g/ha ([4]; 168 h, 7 DAA) [%] | pest or weed control at 560 g/ha ([4]; 168 h, 7 DAA) [%] | pest or weed control at 280 g/ha ([4]; 336 h, 14 DAA) [%] | pest or weed control at 560 g/ha ([4]; 336 h, 14 DAA) [%] | pest or weed control at 560 g/ha ([4]; 504 h, 21 DAA) [%] | pest or weed control at 280 g/ha ([5]; 168 h, 7 DAA) [%] | pest or weed control at 560 g/ha ([5]; 168 h, 7 DAA) [%] | pest or weed control at 280 g/ha ([5]; 336 h, 14 DAA) [%] | pest or weed control at 560 g/ha ([5]; 336 h, 14 DAA) [%] | pest or weed control at 560 g/ha ([5]; 504 h, 21 DAA) [%] | further results
O=C(COc1ccc(Cl)cc1Cl)Nc1ccnc(Cl)c1 [Compound D13] | 35 | 32.5 | 40 | 35 | 37.5 | 70 | 75 | 75 | 91 | 50 | 72.5 | 75 | 91 | 84 | 92 | 77.5 | 75 | 95 | 98 | 92.5 | pest or weed control at 280 g/ha ([1]; 504 h, 21 DAA): 57.5%; TGA Data (rate of weight loss, volatility) [2]: 0.06009 µg/min; pest or weed control at 280 g/ha ([3]; 504 h, 21 DAA): 94%; pest or weed control at 280 g/ha ([4]; 504 h, 21 DAA): 80%; pest or weed control at 280 g/ha ([5]; 504 h, 21 DAA): 90%; pest or weed control at 280 g/ha ([6]; 168 h, 7 DAA): 67%; pest or weed control at 560 g/ha ([6]; 168 h, 7 DAA): 68%; pest or weed control at 280 g/ha ([6]; 336 h, 14 DAA): 78.7%; pest or weed control at 560 g/ha ([6]; 336 h, 14 DAA): 79.9%; pest or weed control at 280 g/ha ([6]; 504 h, 21 DAA): 83.8%; pest or weed control at 560 g/ha ([6]; 504 h, 21 DAA): 74.2%; pest or weed control at 280 g/ha ([7]; 168 h, 7 DAA): 80%; pest or weed control at 560 g/ha ([7]; 168 h, 7 DAA): 82.5%; pest or weed control at 280 g/ha ([7]; 336 h, 14 DAA): 92.5%; pest or weed control at 560 g/ha ([7]; 336 h, 14 DAA): 91.5%; pest or weed control at 280 g/ha ([7]; 504 h, 21 DAA): 97.5%; pest or weed control at 560 g/ha ([7]; 504 h, 21 DAA): 99%
Cc1cc(NC(=O)COc2ccc(Cl)cc2Cl)n(C)n1 [Compound D14] | 37.5 | 50 | 45 | 52.5 | 65 | 80 | 75 | 72.5 | 97 | 100 | 75 | 75 | 90 | 91.5 | 92.5 | 72.5 | 75 | 96.5 | 90 | 100 | pest or weed control at 280 g/ha ([1]; 504 h, 21 DAA): 52.5%; TGA Data (rate of weight loss, volatility) [2]: 0.01234 µg/min; pest or weed control at 280 g/ha ([3]; 504 h, 21 DAA): 100%; pest or weed control at 280 g/ha ([4]; 504 h, 21 DAA): 72.5%; pest or weed control at 280 g/ha ([5]; 504 h, 21 DAA): 95%; pest or weed control at 280 g/ha ([6]; 168 h, 7 DAA): 69.5%; pest or weed control at 560 g/ha ([6]; 168 h, 7 DAA): 69.5%; pest or weed control at 280 g/ha ([6]; 336 h, 14 DAA): 79.6%; pest or weed control at 560 g/ha ([6]; 336 h, 14 DAA): 85%; pest or weed control at 280 g/ha ([6]; 504 h, 21 DAA): 83.7%; pest or weed control at 560 g/ha ([6]; 504 h, 21 DAA): 91.5%; pest or weed control at 280 g/ha ([7]; 168 h, 7 DAA): 82.5%; pest or weed control at 560 g/ha ([7]; 168 h, 7 DAA): 72.5%; pest or weed control at 280 g/ha ([7]; 336 h, 14 DAA): 94%; pest or weed control at 560 g/ha ([7]; 336 h, 14 DAA): 94%; pest or weed control at 280 g/ha ([7]; 504 h, 21 DAA): 98.5%; pest or weed control at 560 g/ha ([7]; 504 h, 21 DAA): 100%
O=C(COc1ccc(Cl)cc1Cl)NOC1CCCCO1 (stereo not drawn) [Compound D15] | 70 | 80 | 87.5 | 94.5 | 99.5 | 85 | 90 | 82.5 | 92.5 | 100 | 75 | 85 | 85 | 95 | 97.5 | 77.5 | 82.5 | 94 | 97.5 | 97.5 | pest or weed control at 286 g/ha ([1]; 504 h, 286 g ae/ha, 21 DAA): 99.5%; TGA Data (rate of weight loss, volatility) ([2]; value marked *: decomposition of the material was observed): 6.9* μg/min; pest or weed control at 286 g/ha ([3]; 504 h, 286 g ae/ha, 21 DAA): 100%; pest or weed control at 286 g/ha ([4]; 504 h, 286 g ae/ha, 21 DAA): 72.5%; pest or weed control at 286 g/ha ([5]; 504 h, 286 g ae/ha, 21 DAA): 85%; pest or weed control at 280 g/ha ([6]; 168 h, 7 DAA): 76%; pest or weed control at 560 g/ha ([6]; 168 h, 7 DAA): 83.5%; pest or weed control at 280 g/ha ([6]; 336 h, 14 DAA): 89.2%; pest or weed control at 560 g/ha ([6]; 336 h, 14 DAA): 94.9%; pest or weed control at 286 g/ha ([6]; 504 h, 286 g ae/ha, 21 DAA): 91.3%; pest or weed control at 560 g/ha ([6]; 504 h, 21 DAA): 98.9%; pest or weed control at 280 g/ha ([7]; 168 h, 7 DAA): 72.5%; pest or weed control at 560 g/ha ([7]; 168 h, 7 DAA): 80%; pest or weed control at 280 g/ha ([7]; 336 h, 14 DAA): 97%; pest or weed control at 560 g/ha ([7]; 336 h, 14 DAA): 95%; pest or weed control at 286 g/ha ([7]; 504 h, 286 g ae/ha, 21 DAA): 99.5%; pest or weed control at 560 g/ha ([7]; 504 h, 21 DAA): 100%
